Experimental data reported in patent US4916231A, “Alkenyltetrazole derivatives” (Shionogi & Co., Ltd., priority 1988, dated 1990).
Counter-ions that a name gives are not always drawn. Like-named read-outs stand apart in the source and are kept apart here.

Columns and labels:
Rats Washed Platelet = experiment: in vitro rat washed platelet aggregation test (collagen-induced); format: cell-based, rat (Sprague-Dowley); details: 0.05 h, inducer collagen 4 μg/ml, 37° C., 3 minutes after inducer, read-out: 50% Inhibitory Concentration (IC50), Inhibition of Aggregation for Rats Washed Platelet
Procedure: From the abdominal artery of a male rat (Sprague-Dowley, 8 weeks old) was collected 10 ml of blood with a syringe containing 1.5 ml of ACD (85 mM of sodium citrate, 70 mM of citric acid, 110 mM of glucose) and 20 μg of prostaglandin E1. The blood is placed in a plastic test tube, shaken moderately turning and centrifuged for 10 minutes at 160×g to give platelet rich plasma (PRP). To the prepared PRP was added apyrase (25 μg/ml) and the mixture was layered on 40% bovine serum albumin. The resulting mixture is centrifuged at 1200×g for 25 minutes.
The platelet aggregation reaction was measured by an aggregometer (NKK HEMA TRACER 1 MODEL PAT-6A.6M, Niko bioscience). In a measuring cuvette was placed 245 μl of the washed platelet of which platelet number was adjusted to 5×10^5 /μl and set in the aggregometer. The washed platelet was stirred (1000 rpm) at 37° C. and 3.8 µl of 0.1M of CaCl2 was added thereto. One minute later, 0.5 µl of a solution of a test compound in dimethylsulfoxide was added and 2 minutes later, 1 µl of collagen (Collagen reagent Horm®, HORMON-CHEMIE Munchen GMBH, final concentrate 4 μg/ml) as an inducer for platelet aggregating was added. The platelet aggregation was monitored with an aggregometer in terms of the increase and decrease in transmittancy.

Guinea Pig Platelet = experiment: Long Acting Inhibitory effect for Guinea Pig Platelet Aggregation (ex vivo), arachidonic acid-induced; format: in vivo, guinea pig (Slc- Hartley); details: for AA (100 μM)-Induced Platelet Aggregation (%): 0.5 mg/kg, mean ± S.E., 5 guinea pigs
Procedure: A solution of test compound in physiological saline was administered (dosage: 0.5 mg/kg, dosage volume: 2 ml/Kg) to a guinea pig (Slc- Hartley, male, 9 weeks old, weight 520 to 590 g).
Inhibitory effect for platelet aggregation was measured in 1, 3, and 6 hours after administration of the test compounds.
Under sodium pentobarbital anesthesia, blood was collected from the abdominal artery in such the ratio that 3.8% sodium citrate solution/blood was 1 volume/9 volume.
The blood centrifuged for 15 minutes at 180×g at 22° C. to give platelet rich plasma (PRP). The remaining blood was further centrifuged at 3,000 rpm for 10 minutes at 22° C. to give platelet-poor plasma (PPP).
The platelet aggregation test was performed according to Born's method [Born, G.V.R., Nature, 194, 927-929 (1962)], using an aggregometer (model AUTO RAM-61, Rika Denki Kogyo CO., Ltd.). 400 µl of PRP, whose platelets number was prepared to count 50-55×10^4 /μl, was placed in a measuring cuvette and set in the aggregometer. PRP was stirred for 1 minute (at 1,200 rpm) at 37° C. and preliminarily warmed. As an inducer for platelet aggregating, 100 µl of arachidonic acid (sodium salt, Sigma) was added and the platelet aggregation was monitored with an aggregometer in terms of the increase and decrease in light transmission.
Setting the light transmittance for PRP at 0% of platelet aggregating rate, and that for PPP at 100%, the maximum light transmittance for the sample, after the addition of the inducer for platelet aggregating, was regarded as the maximum platelet aggragation rate.
The inhibitory rate for aggregation (%) was calculated from the ratio of the maximum aggregation rate in the test-compound-added group to that in the control group (carrier-added group).

[1] = system: sodium arachidonate-induced pulmonary thromboembolic death in mice; experiment: Protective effects on sodium arachidonate-induced pulmonary thromboembolic death in mice; format: in vivo, mice (DDY); details: for ED50: Mus musculus, iv, 1 h, into tail vein, mortality at 1 hour, read-out: ED50 (95% confidence limit)
Procedure: The mice (DDY, 4 weeks old, male, weight 20 to 25 g) in a group of ten are used.
Pulmonary thromboembolic death was induced by injecting 99% solution of sodium arachidonate (Sigma) in physiological saline [100 mg/kg (100% pulmonary thromboembolic death was induced in this amount.)] into tail vein. In order to examine the duration time of the test compound, sodium arachidonate was administrated in 15 minutes and 60 minutes after an administration of a solution of the test compounds in physioligical saline into tail vein. The mortality at 1 hour was determined and ED50 was calculated by probit method.

IC50 (Rats Washed Platelet) [nM] | SMILES | other results
2 | Cc1ccc(S(=O)(=O)N[C@H]2[C@H]3CC[C@H](C3)[C@@H]2C/C=C\CCCc2nn[nH]n2)cc1 (relative stereo) [Iab-b, Sodium salt of (1R*,2S*,3S*,4S*)-2-[(2Z)-6-(5-tetrazolyl)hex-2-enyl]-3-(4-tolylsulfonylamino)bicyclo[2.2.1]-hepatane] | –
20 | O=S(=O)(N[C@@H]1[C@@H](C/C=C\CCCc2nnn[nH]2)[C@H]2CC[C@@H]1O2)c1ccccc1 (relative stereo) [Iba-b, (1R*,2R*,3R*,4S*)-3-phenylsulfonylamino-2-[(2Z)-6-(5-tetrazolyl)hex-2-enyl]-7-oxabicyclo[2.2.1]heptane] | –
7 | CC1(C)[C@H]2C[C@H](C/C=C\CCCc3nnn[nH]3)[C@@H](NS(=O)(=O)c3ccc(Cl)cc3)[C@@H]1C2 [Iej-b, (1R,2R,3S,5S)-2-[(4-chlorophenyl)sulfonylamino]-3-[(2Z)-6-(5-tetrazolyl)hex-2-enyl]-6,6-dimethylbicyclo [3.1.1]heptane] | –
2 | CC1(C)[C@H]2C[C@H](C/C=C\CCCc3nnn[nH]3)[C@@H](NS(=O)(=O)c3ccc(Br)cc3)[C@@H]1C2 [Iec-b, (1R,2R,3S,5S)-2-[(4-bromophenyl)sulfonylamino]-3-[(2Z)-6-(5-tetrazolyl)hex-2-enyl]-6,6-dimethylbicyclo[3.1.1]heptane] | –
10 | CC1(C)[C@H]2C[C@H](C/C=C\CCCc3nnn[nH]3)[C@@H](NS(=O)(=O)c3ccc(-c4ccccc4)cc3)[C@@H]1C2 [Ieh-b, (1R,2R,3S,5S)-2-[(4-biphenylyl)sulfonylamino]-3-[(2Z)-6-(5-tetrazolyl)hex-2-enyl]-6,6-dimethylbicyclo[3.1.1]heptane] | –
20 | CC1(C)[C@H]2C[C@H](C/C=C\CCCc3nnn[nH]3)[C@@H](NS(=O)(=O)c3ccccc3Cl)[C@@H]1C2 [Iel-b, (1R,2R,3S,5S)-2-[(2-chlorophenyl)sulfonylamino]-3-[(2Z)-6-(5-tetrazolyl)hex-2-enyl]-6,6-dimethylbicyclo [3.1.1]heptane] | –
2 | O=S(=O)(N[C@H]1[C@H]2CC[C@H](C2)[C@@H]1C/C=C\CCCc1nnn[nH]1)c1ccc(O)cc1 (relative stereo) [Iad-b, (1R*,2S*,3S*,4S*)-3-(4-hydroxyphenylsulfonylamino)-2-[(2Z)-6-(5-tetrazolyl)hex-2-enyl]bicyclo[2.2.1]heptane] | –
9 | CC1(C)[C@H]2C[C@H](C/C=C\CCCc3nnn[nH]3)[C@@H](NS(=O)(=O)c3ccc4ccccc4c3)[C@@H]1C2 [Iei-b, (1R,2R,3S,5S)-2-[(2-naphthyl)sulfonylamino]-3-[(2Z)-6-(5-tetrazolyl)hex-2-enyl]-6,6-dimethylbicyclo[3.1.1]-heptane] | –
5 | CC1(C)[C@H]2C[C@H](C/C=C\CCCc3nnn[nH]3)[C@@H](NS(=O)(=O)c3cccc(Cl)c3)[C@@H]1C2 [Iek-b, (1R,2R,3S,5S)-2-[(3-chlorophenyl)sulfonylamino]-3-[(2Z)-6-(5-tetrazolyl)hex-2-enyl]-6,6-dimethyl-bicyclo [3.1.1]heptane] | –
4 | Cc1ccc(S(=O)(=O)N[C@@H]2[C@@H](C/C=C\CCCc3nnn[nH]3)C[C@H]3C[C@@H]2C3(C)C)cc1 [Ieb-b, (1R,2R,3S,5S)-2-(p-tolylsulfonylamino)-3-[(2Z)-6-(5-tetrazolyl)hex-2-enyl]-6,6-dimethylbicyclo[3.1.1]-heptane] | –
3 | CC1(C)[C@H]2C[C@H](NS(=O)(=O)c3ccccc3)[C@@H](C/C=C\CCCc3nn[nH]n3)[C@@H]1C2 [Ida-b] | –
2 | O=S(=O)(N[C@H]1[C@H]2CC[C@H](C2)[C@@H]1C/C=C\CCCc1nn[nH]n1)c1ccc(Br)cc1 (relative stereo) [Iac-b, (1R*,2S*,3S*,4S*)-3-(4-bromophenylsulfonylamino-2-[(2Z)-6-(5-tetrazolyl)hex-2-enyl]bicyclo[2.2.1]heptane] | –
10 | O=S(=O)(N[C@H]1[C@H](C/C=C\CCCc2nnn[nH]2)[C@H]2CC[C@@H]1O2)c1ccccc1 (relative stereo) [Ica-b, (1R*,2S*,3S*,4S*)-3-phenylsulfonylamino-2-[(2Z)-6-(5-tetrazolyl)hex-2-enyl]-7-oxabicyclo[2.2.1]heptane] | –
2 | COc1ccc(S(=O)(=O)N[C@H]2[C@H]3CC[C@H](C3)[C@@H]2C/C=C\CCCc2nnn[nH]2)cc1 (relative stereo) [Iae-b, (1R*,2S*,3S*,4S*)-3-(4-methoxyphenylsulfonylamino)-2-[(2Z)-6-(5-tetrazolyl)hex-2-enyl]bicyclo[2.2.1]heptane] | –
5 | COc1ccc(S(=O)(=O)N[C@@H]2[C@@H](C/C=C\CCCc3nnn[nH]3)C[C@H]3C[C@@H]2C3(C)C)cc1 [Iee-b, (1R,2R,3S,5S)-2-[(4-methoxyphenyl)sulfonylamino]-3-[(2Z)-6-(5-tetrazolyl)hex-2-enyl]-6,6-dimethylbicyclo [3.1.1]heptane] | –
20 | CC1(C)[C@H]2C[C@H](C/C=C\CCCc3nnn[nH]3)[C@@H](NS(=O)(=O)c3ccccc3)[C@@H]1C2 [Iea-b, (1R,2R,3S,5S)-2-phenylsulfonylamino-3-[(2Z)-6-(5-tetrazolyl)hex-2-enyl]-6,6-dimethylbicyclo[3.1.1]heptane] | –

SMILES | IC50 (Rats Washed Platelet) [nM] | other results
O=S(=O)(N[C@H]1[C@H]2CC[C@H](C2)[C@@H]1C/C=C\CCCc1nnn[nH]1)c1ccccc1 (relative stereo) [Iaa-b, (1R*,2S*,3S*,4S*)-3-phenylsulfonylamino-2-[(2Z)-6-(5-tetrazolyl)hex-2-enyl]bicyclo[2.2.1]heptane] | 3 | AA (100 μM)-Induced Platelet Aggregation (%) (Guinea Pig Platelet; 0 hours after p.o. administration): 89.7 ± 1.4%; inhibition of arachidonic acid induced platelet aggregation (Guinea Pig Platelet; 1 and 3 hours after administration): significantly inhibited; AA (100 μM)-Induced Platelet Aggregation (%) (Guinea Pig Platelet; 1 hour after p.o. administration, * p < 0.05): 2.5 ± 2.0%; AA (100 μM)-Induced Platelet Aggregation (%) (Guinea Pig Platelet; 3 hours after p.o. administration, * p < 0.05): 19.0 ± 18.0%; inhibition of arachidonic acid induced platelet aggregation (Guinea Pig Platelet; 6 hours after administration): still observed; AA (100 μM)-Induced Platelet Aggregation (%) (Guinea Pig Platelet; 6 hours after p.o. administration): 56.3 ± 20.4%; duration of action (Guinea Pig Platelet; conclusion of ex vivo test): long acting; inhibitory potency, 15 vs 60 minutes pretreatment ([1]; 15 minutes and 60 minutes pretreatment): did not show significantly different inhibitory potency; inhibitory effect of 60 minutes pretreatment ([1]; 60 minutes pretreatment): rather stronger inhibitory effect; ED50 ([1]; pretreatment 15 min): 1.8 mg/kg; ED50 ([1]; pretreatment 60 min): 1.5 mg/kg; duration of action ([1]; conclusion of mouse test): long-acting
O=S(=O)(N[C@H]1[C@H]2CC[C@H](C2)[C@@H]1C/C=C\CCCc1nnn[nH]1)c1ccccc1 [(+)-Iaa-b, (1R,2S,3S,4S)-3-phenylsulfonylamino-2-[(2Z)-6-(5-tetrazolyl)hex-2-enyl]bicyclo[2.2.1]heptane] | 2 | –
